Assay results taken from patent US4933354A, “2-pyrrolidone-5-carboxylic acid compounds useful for the treatment of mental disorders” (Kissei Pharmaceutical Co., Ltd., priority 1987, dated 1990).

Test system: ECS-induced amnesic mice
Assay: One trial passive avoidance task by step-through test (ECS-induced amnesia)
Assay type: in vivo, mice (male, dd-strain)
Conditions: oral, 1 μmole/mouse, 1 hr before training trial; test 24 hr after training
Experimental: Anti-amnesic effects of the compounds were determined by the following tests. Male mice of dd-strain, weighing 23-30 g, were employed for the experiment, and the test compounds were freshly dissolved in saline and administered orally at a dose of 1 μmole/mouse. (1) One trial passive avoidance task by step-through test A shuttle box composed of a light (7 cm high, 9 cm wide and 15 cm depth) and a dark (12 cm high, 13 cm wide and 15 cm depth) box; the former was lighted using […]-white light fluorescent bar lamp placed at the position of 40 cm from the floor and in the latter the stainless steel floor grids 2.5 mm in diameter were placed at intervals of 4 mm in order to give a foot shock. Both boxes were connected with a gate 3 cm in diameter. As the training trial, each animal was placed in the light box and a foot shock ([…]) was delivered through the floor grid immediately after the animal entered into the dark box, accordingly the animal learned a punishment for the entrance. […] Twenty-four hr after the training trial, the animal was placed again in the light box and step-through (ST) latency, time spent until the animal entered the dark box, was measured. […] The ST-latency on the test trial was measured up to 300 and 600 sec for control and amnesic group, respectively.

| SMILES | ST-latency in ECS-induced amnesic mice |
| --- | --- |
| O=C1CCC(C(=O)OCc2ccc(Cl)cc2)N1 (centres unmarked) [Compound 1, p-Chlorobenzyl 2-pyrrolidone-5-carboxylate] | prolonged the ST-latency in ECS-induced amnesic mice significantly |

Test system: not listed separately
Assay: Acute toxicity
Conditions: mouse, in vivo; male SCL-ICR mice, single shot, lethality at 1 week; route not given
Experimental: The test compounds were administered to male mice of SCL-ICR-strain, 7 weeks age, at several dosage (single shot) and LD50, 50% lethal dose, was estimated from the number of lethal mice at 1 week past to the administration.

| SMILES | LD50 at 168 h |
| --- | --- |
| O=C1CCC(C(=O)OCc2ccc(Cl)cc2)N1 (centres unmarked) [Compound 1, p-Chlorobenzyl 2-pyrrolidone-5-carboxylate] | > 2590 mg/kg |
| O=C1CCC(C(=O)OCc2ccccn2)N1 (centres unmarked) [Compound 2, 2-Pyridylmethyl 2-pyrrolidone-5-carboxylate] | 1540 mg/kg |
| O=C1CCC(C(=O)OCc2cccnc2)N1 (centres unmarked) [Compound 3, 3-Pyridylmethyl 2-pyrrolidone-5-carboxylate] | > 2590 mg/kg |
| O=C1CCC(C(=O)OCc2ccncc2)N1 (centres unmarked) [Compound 4, 4-Pyridylmethyl 2-pyrrolidone-5-carboxylate] | > 2590 mg/kg |
| O=C1CCC(C(=O)OCCc2ccccn2)N1 (centres unmarked) [Compound 5, 2-(2-Pyridyl)ethyl 2-pyrrolidone-5-carboxylate] | > 2590 mg/kg |
| O=C1CCC(C(=O)OCCCc2ccccn2)N1 (centres unmarked) [Compound 6, 3-(2-Pyridyl)propyl 2-pyrrolidone-5-carboxylate] | < 1250 mg/kg |
| O=C1CCC(C(=O)NCc2ccccn2)N1 (centres unmarked) [Compound 7, N-(2-Pyridylmethyl)-2-pyrrolidone-5-carboxamide] | > 2590 mg/kg |
